The values below come from patent publication US9023857B2, “Substituted 6-(2-aminobenzylamino)purine derivatives, their use as medicaments and preparations containing these compounds” (Univerzita Palackeho V Olomouci, priority 2009, dated 2015).

Data set [1] concerns human T-lymphoblastoid leukaemic cell line CEM. In words: In vitro cytotoxic activity (Calcein AM, 72 hours), CEM. Particulars: read-out: Cytotoxicity IC50 CEM.
Data set [2] has as its system p21^WAF1 protein in MCF-7 cells. In words: Induction of p21^WAF1 protein in MCF-7 cells (immunoblotting). In kind it is cell-based, human. Here is the method: (a) DO-1, DO-2 and 1801 monoclonal antibodies recognise the N-terminal region of p53 protein, monoclonal antibodies DO-11 and DO-12 recognise different epitopes in the core domain of p53 protein, monoclonal antibodies Bp53-10 and Pab421 recognise the C-terminal region of p53 protein. (b) Monoclonal antibody 118 recognises p21^WAF1.
For direct immunoblotting, total cellular protein lysates were prepared by harvesting cells in hot Laemmli electrophoresis sample buffer. Proteins were then separated by SDS-polyacrylamide gel electrophoresis (SDS-PAGE) on 10% gel and transferred onto a nitrocellulose membrane in Bio.Rad Mini Trans-Blott Electrophoretic Transfer Cell for 2 hrs at 4° C. applying 150 mA in transfer buffer ([…], 190 mM glycine and 20% methanol). Prestained molecular weight markers (Bio-Rad) were run in parallel. The blotted membranes were blocked in 5% milk and 0.1% Tween 20 in PBS for 2 hrs and probed overnight with monoclonal antibodies. After washing 3 times in PBS plus 0.1% Tween 20, peroxidase conjugated rabbit anti-mouse immunoglobulin antiserum (Dako, Denmark) diluted 1:1000 was used as the secondary antibody. To visualise peroxidase activity, ECL reagents from […] were used according to the manufacturer instructions.
MCF7-DDp53 cell line was derived from MCF-7 parental cell line by stable […] with plasmid pCMVneonDDp53 coding for dominant negative truncated mouse p53 protein including amino acid residues 1-14 and 302-390 under the control of at the CMV promoter. The control cell line MCF-7neo was derived by transfecting MCF-7 cells with pCMVneo vector. Transfections were performed using the Effectene transfection reagent (QIAGEN, Germany) as recommended by the supplier. Stable transfectants were selected at 2 mg/ml G418 sulphate (Life Technologies). The expression of Ddp53 miniprotein in MCF-7Ddp53 cell line has been examined by immunoblotting with Bp53-10 monoclonal antibody. Independently isolated MCF-7Dp53 clones 9, 12 and 14 expressing high levels of Ddp53 miniprotein and MCF-7-neo clones 3, 4 and 7 were used. […]
(In general: A western blot detects proteins with antibodies after separation by electrophoresis.)

In data set [3] the test system is CMV promoter (plasmid pCMV-lacZ). In words: β-galactosidase expression from transiently transfected pCMV-lacZ in MCF-7 and T47D. Particulars: transiently transfected MCF-7 and T47D (FIG. 9).
The target in data set [4] is CDK9/cyclin T (Homo sapiens, UniProt P50750). As to the kind of experiment: CDK inhibition assay, CDK9/cyclin T.
Data set [5] concerns SV40 large T-antigen. In kind it is cell-based.
In data set [6] the test system is HCMV. In words: Plaque number reduction assay, HCMV on HFFF. In kind it is cell-based, Human cytomegalovirus strain Toledo.
Data set [7] deals with SV40 large T-antigen in COS-1 cells. As to the kind of experiment: Expression from SV40 promoter incorporated in the cellular genome (COS-1 cells). The format is cell-based. Particulars: COS-1 cells (FIG. 10). Here is the method: Cell were detached with rubber policeman and washed three times with ice-cold PBS and lysed in buffer (50 mM Tris, pH 7.4, 250 mM NaCl, 5 mM EDTA, 50 mM NaF, 1 mM Na3VO4, 1% Nonidet P40) containing mixture of protease and phosphatase inhibitors (Sigma-Aldrich St Louis, Mo., USA). 20 μg of total proteins were separated by SDS-polyacrylamide gel electrophoresis (SDS-PAGE) on 8% or 10% gels and transferred onto nitrocellulose membranes. Membranes were blocked in 5% milk and 0.1% Tween 20 in PBS and probed overnight with specific monoclonal antibodies or rabbit polyclonal sera. Primary antibodies specific for RNA polymerase II (all from Santa Cruz Biotechnology, California, USA) included: (i) N-20 used at […] (ii) H14, specific for form phosphorylated at phosphoserine 5, used at 6 μg/ml and (iii) H5, specific for form phosphorylated at phosphoserine 2 used at 4 μg/ml. Additional primary mAb used in immunblots included (iv) anti-p53 (D0-1, in house, […]) used at 1 μg/ml, (v) anti-p21^WAF1 (118, in house), used at 1 μg/ml), (vi) anti-actin (A-2066, Sigma-Aldrich St Louis, Mo., USA) used at 1 μg/ml, (vii) anti-T-antigen (419, in house, Lane), used at 1 μg/ml. All primary antibodies were diluted in PBS containing 5% powdered milk; 0.1% Tween 20. […]

The test system of data set [8] is HSV-1. As to the kind of experiment: Plaque number reduction assay, HSV-1 on HFFF. In kind it is cell-based, Herpes simplex virus type 1 strain 17.
The test system of data set [9] is P388D1 leukemia transplanted intraperitoneally. In words: In vivo anticancer activity, survival model of P388D1 leukemia. Particulars: DBA-2 mice, orally twice daily 250 mg/kg, Days 1-3 and 7-9. Here is the method:
DBA-2 mice were used as a host. One day following the leukemia transplantation, treatment with 105 was initiated. […] Survival analysis of treated animals (10 mice/group) was preformed in comparison with vehicle treated mice using Kaplan-Meier method and the significance was evaluated by the log-rank test. Body weight of experimental animals was evaluated in parallel in order to reflect toxicity and efficacy of therapy. Comparative analysis of body weight was performed using […].

Data set [10] deals with promyelocytic leukemia HL 60. In words: In vitro cytotoxic activity (Calcein AM, 72 hours), HL 60. Particulars: Homo sapiens, HL-60, 72 h, read-out: Cytotoxicity IC50 HL60.
Data set [11] deals with HSV-1-deltaTK. As to the kind of experiment: Plaque number reduction assay, HSV-1-deltaTK on HFFF. In kind it is cell-based. Particulars: HSV-1 thymidine kinase (TK) deletion mutant on HFFF.
For data set [12], the system named is IV. In kind it is cell-based, Influenza Virus H1N1 strain A/PR/8/34. Particulars: MDCK cells.

Structures are written as SMILES.

Sequence of CDK9/cyclin T (P50750 whole entry, species assumed): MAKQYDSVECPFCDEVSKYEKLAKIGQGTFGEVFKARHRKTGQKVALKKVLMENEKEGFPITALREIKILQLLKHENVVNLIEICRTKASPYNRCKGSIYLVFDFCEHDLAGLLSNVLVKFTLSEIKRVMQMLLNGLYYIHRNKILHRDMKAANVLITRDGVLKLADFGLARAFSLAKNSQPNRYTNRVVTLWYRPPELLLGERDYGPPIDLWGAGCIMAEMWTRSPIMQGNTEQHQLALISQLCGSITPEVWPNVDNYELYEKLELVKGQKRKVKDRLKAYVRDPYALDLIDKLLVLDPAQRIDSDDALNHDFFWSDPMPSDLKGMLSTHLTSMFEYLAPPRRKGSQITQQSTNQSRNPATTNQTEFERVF
Sequence of CDK9/cyclin T (O60563 whole entry partner, species assumed): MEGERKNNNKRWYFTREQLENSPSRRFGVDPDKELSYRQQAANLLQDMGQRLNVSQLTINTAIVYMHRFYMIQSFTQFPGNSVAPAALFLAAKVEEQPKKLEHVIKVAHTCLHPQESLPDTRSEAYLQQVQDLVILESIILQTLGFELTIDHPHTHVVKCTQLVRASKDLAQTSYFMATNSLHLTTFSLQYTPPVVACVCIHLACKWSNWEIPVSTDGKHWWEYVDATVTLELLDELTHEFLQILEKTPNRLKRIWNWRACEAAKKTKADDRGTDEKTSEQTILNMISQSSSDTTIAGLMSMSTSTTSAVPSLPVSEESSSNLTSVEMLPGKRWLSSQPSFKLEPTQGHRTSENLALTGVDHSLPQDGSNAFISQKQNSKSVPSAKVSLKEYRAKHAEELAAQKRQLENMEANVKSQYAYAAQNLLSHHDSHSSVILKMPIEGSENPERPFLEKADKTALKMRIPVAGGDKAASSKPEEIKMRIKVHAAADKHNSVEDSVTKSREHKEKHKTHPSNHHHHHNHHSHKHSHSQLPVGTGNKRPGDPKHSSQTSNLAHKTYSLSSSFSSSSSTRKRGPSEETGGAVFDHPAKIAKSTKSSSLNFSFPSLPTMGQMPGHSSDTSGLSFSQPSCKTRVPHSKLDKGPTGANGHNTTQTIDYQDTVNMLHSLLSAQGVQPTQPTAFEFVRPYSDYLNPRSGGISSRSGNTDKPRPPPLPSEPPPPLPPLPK

For orientation: IC50 means the concentration that gives 50% inhibition. Take `CCC(CO)Nc1nc(NCc2ccccc2N)c2ncn(C(C)C)c2n1` (stereo not shown) [Compound 105, 2-({6-[(2-aminobenzyl)amino]-9-isopropyl-9H-purin-2-yl}amino)butan-1-ol]: the IC50 in [1] was 4.5 µM; in [4] it was 0.005 µM; in data set [10] it was 6.7 µM. Moreover, the “p21^WAF1 level” value in data set [2] (MCF7 cells treated for 24 h, immunoblot (FIG. 2)) is given as “Induction”. Further, in data set [2] (MCF-7Ddp53 clones (dominant-negative Ddp53 miniprotein)), the “p21^WAF1 induction” value is on record as “no p21^WAF1 induction”. The “time at which enhanced level of p21^WAF1 protein was observed” value in data set [2] (MCF-7 cells) stood at 12 h. The “expression from CMV promoter (β-galactosidase activity)” value in data set [3] is reported as “inhibited expression”. Further, the “level of large T-antigen” value in data set [5] was “reduced level”. The “inhibition of virus replication (in words)” value is recorded as “equally sensitive” in data set [6], “inhibited replication” in data set [8], “remained sensitive” in data set [11] and “ineffective” in [12]. Besides, the “large T-antigen expression” value in data set [7] is listed as “stimulated large T-antigen expression”. The “body weight of treated animals” value in data set [9] is “reducing body weight”. The same molecule registered a mean survival time in [9] of 15.4 days. For the same molecule, the “survival analysis (Kaplan-Meier, log-rank)” value in data set [9] (P=0.0409 versus vehicle) is given as “significantly better survival”.
